DBAASP
Converted amounts (≈) assume the structure as drawn. “And” between values parts separate entries of the source, which are not always exact repeats. Equal values may be shown once. Each block holds one compound with its values, some of them ahead of it.

Key:
Assay in all cases: ≥ marks a high value that may be exact or a test limit, other limits are often not marked, values filed in µg/mL are converted to µM
[1] = test system: Escherichia coli ATCC 25922
[2] = test system: Staphylococcus aureus ATCC 29213
[3] = test system: Enterococcus faecalis ATCC 29212
[4] = test system: Acinetobacter baumannii ATCC 19606
[5] = test system: Pseudomonas aeruginosa ATCC 27853
[6] = test system: Staphylococcus aureus ATCC 25923
[7] = test system: Staphylococcus aureus
[8] = test system: Pseudomonas aeruginosa
[9] = test system: Escherichia coli
[10] = test system: Bacillus subtilis
[11] = test system: Candida albicans ATCC 2002
[12] = test system: Staphylococcus epidermidis

SMILES: CC[C@H](C)[C@H](NC(=O)[C@H](CCCN=C(N)N)NC(=O)[C@H](CCC(N)=O)NC(=O)[C@@H](NC(=O)[C@@H](NC(=O)[C@H](CCCN=C(N)N)NC(=O)[C@H](CCCCN)NC(=O)[C@@H](N)Cc1ccccc1)[C@@H](C)CC)C(C)C)C(=O)N[C@@H](CCCCN)C(=O)N[C@@H](CC(=O)O)C(=O)N[C@@H](Cc1cnc[nH]1)C(=O)N[C@@H](CC(C)C)C(=O)N[C@@H](CCCN=C(N)N)C(=O)O [FKRIVQRIKDHLR]
- MIC [1]: 10 µM (≈ 17.1 µg/mL)
- MIC [2]: > 40 µM

SMILES: CC(C)C[C@H](NC(=O)[C@H](CCCCN)NC(=O)CNC(=O)[C@H](CC(C)C)NC(=O)[C@H](CC(C)C)NC(=O)[C@H](C)NC(=O)[C@H](CC(N)=O)NC(=O)[C@H](CC(C)C)NC(=O)[C@H](C)NC(=O)[C@H](CCC(N)=O)NC(=O)CNC(=O)[C@@H](NC(=O)[C@H](Cc1ccccc1)NC(=O)CNC(=O)[C@H](CC(C)C)NC(=O)[C@@H](N)Cc1ccccc1)C(C)C)C(N)=O [FLGFVGQALNALLGKL]
- MIC [1]: > 64 µM
- MIC [2]: 32 µM (≈ 53.1 µg/mL)
- MIC [3]: > 64 µM
- MIC [4]: > 64 µM

SMILES: CC(C)C[C@H](NC(=O)[C@H](CC(C)C)NC(=O)[C@H](CCCCN)NC(=O)[C@H](CCCCN)NC(=O)[C@H](CC(C)C)NC(=O)[C@H](CCC(N)=O)NC(=O)[C@H](CCCCN)NC(=O)[C@H](CC(C)C)NC(=O)[C@@H](N)Cc1ccccc1)C(N)=O [FLKQLKKLL]
- MIC [1]: 56.6 µM (≈ 63.9 µg/mL)
- MIC [4]: > 113 µM
- MIC [5]: 7.08 µM (≈ 7.99 µg/mL)
- MIC [6]: 113 µM (≈ 128 µg/mL)

SMILES: CC(C)C[C@H](NC(=O)[C@H](CC(C)C)NC(=O)[C@H](CCCCN)NC(=O)[C@H](CCCCN)NC(=O)[C@H](CC(C)C)NC(=O)[C@H](Cc1ccc(O)cc1)NC(=O)[C@H](CCCCN)NC(=O)[C@H](CC(C)C)NC(=O)[C@@H](N)Cc1ccccc1)C(N)=O [FLKYLKKLL]
- MIC [1]: 13.7 µM and 27.5 µM
- MIC [4]: 13.7 µM and 27.5 µM

SMILES: CC[C@H](C)[C@H](NC(=O)CN)C(=O)NCC(=O)N[C@@H](CCCCN)C(=O)N[C@@H](Cc1ccccc1)C(=O)N[C@H](C(=O)N[C@@H](Cc1cnc[nH]1)C(=O)N[C@@H](C)C(=O)N[C@@H](C)C(=O)N[C@@H](CCCCN)C(=O)N[C@@H](CCCCN)C(=O)N[C@@H](Cc1ccccc1)C(=O)NCC(=O)N[C@@H](CCCCN)C(=O)N[C@@H](CC(C)C)C(=O)N[C@@H](Cc1ccccc1)C(=O)N[C@H](C(=O)NCC(=O)N[C@@H](CCC(=O)O)C(=O)N[C@H](C(=O)N[C@@H](CCSC)C(=O)N[C@@H](CC(N)=O)C(=O)N[C@@H](CO)C(N)=O)[C@@H](C)CC)[C@@H](C)CC)[C@@H](C)CC [GIGKFIHAAKKFGKLFIGEIMNS]
- MIC [7]: 9.6 µM (≈ 24.1 µg/mL)
- MIC [8]: 23.1 µM (≈ 57.8 µg/mL)
- MIC [9]: 2.4 µM (≈ 6.01 µg/mL)

SMILES: CC[C@H](C)[C@H](N)C(=O)N[C@@H](CC(N)=O)C(=O)N[C@@H](Cc1c[nH]c2ccccc12)C(=O)N[C@@H](CCCCN)C(=O)N[C@@H](CCCCN)C(=O)NCC(=O)N[C@@H](CCCCN)C(=O)N[C@@H](CCC(=O)O)C(=O)N[C@H](C(=O)N[C@@H](CC(C)C)C(=O)N[C@@H](CCCCN)C(=O)N[C@@H](C)C(=O)N[C@@H](CC(C)C)C(N)=O)C(C)C [INWKKGKEVLKAL]
- MIC [9]: > 100 µM
- MIC [10]: ≥ 100 µM

SMILES: CC[C@H](C)[C@H](NC(C)=O)C(=O)N[C@@H](CC(N)=O)C(=O)N[C@@H](Cc1c[nH]c2ccccc12)C(=O)N[C@@H](CC(C)C)C(=O)N[C@@H](CCCCN)C(=O)N[C@@H](CC(C)C)C(=O)NCC(=O)N[C@@H](CCCCN)C(=O)N[C@@H](CCCCN)C(=O)N[C@@H](CC(C)C)C(=O)N[C@@H](CC(C)C)C(=O)N[C@@H](CO)C(=O)N[C@@H](C)C(=O)N[C@@H](CC(C)C)C(N)=O [INWLKLGKKLLSAL]
- MIC [9]: > 100 µM
- MIC [10]: 25 µM (≈ 41 µg/mL)

Other lines, results leading:

- MIC [9]: 35 µM (≈ 58.7 µg/mL)
- MIC [10]: ≥ 40 µM
SMILES: CC[C@H](C)[C@H](N)C(=O)N[C@@H](CC(N)=O)C(=O)N[C@@H](Cc1c[nH]c2ccccc12)C(=O)N[C@@H](CO)C(=O)N[C@@H](CO)C(=O)N[C@H](C(=O)N[C@@H](Cc1ccccc1)C(=O)N[C@@H](CCC(=O)O)C(=O)N[C@@H](CCCCN)C(=O)N[C@H](C(=O)N[C@@H](CCCCN)C(=O)N[C@@H](CC(N)=O)C(=O)N[C@@H](CC(C)C)C(=O)N[C@H](C(N)=O)C(C)C)C(C)C)[C@@H](C)CC [INWSSIFEKVKNLV]

- MIC [8]: 10.4 µM (≈ 25 µg/mL)
SMILES: CC[C@H](C)[C@H](NC(=O)[C@H](Cc1ccccc1)NC(=O)[C@H](CO)NC(=O)[C@H](CCCCN)NC(=O)[C@H](Cc1c[nH]c2ccccc12)NC(=O)[C@@H](N)CCCCN)C(=O)N[C@@H](CCCCN)C(=O)N[C@@H](CCCCN)C(=O)N[C@@H](C)C(=O)N[C@@H](CCCCN)C(=O)N[C@H](C(=O)N[C@@H](CO)C(=O)N[C@@H](Cc1ccccc1)C(=O)N[C@@H](CC(C)C)C(=O)N[C@@H](Cc1cnc[nH]1)C(=O)N[C@@H](CO)C(=O)N[C@@H](C)C(=O)N[C@@H](CCCCN)C(=O)N[C@@H](CCCCN)C(=O)N[C@@H](Cc1ccccc1)C(N)=O)[C@@H](C)O [KWKSFIKKAKTSFLHSAKKF]

- MIC [8]: 10.2 µM (≈ 25 µg/mL)
SMILES: CC[C@H](C)[C@H](NC(=O)[C@H](Cc1ccccc1)NC(=O)[C@H](CO)NC(=O)[C@H](CCCCN)NC(=O)[C@H](Cc1c[nH]c2ccccc12)NC(=O)[C@@H](N)CCCCN)C(=O)N[C@@H](CCCCN)C(=O)N[C@@H](CCCCN)C(=O)N[C@@H](CC(C)C)C(=O)N[C@H](C(=O)N[C@@H](CO)C(=O)N[C@@H](CCCCN)C(=O)N[C@@H](Cc1ccccc1)C(=O)N[C@@H](CC(C)C)C(=O)N[C@@H](Cc1cnc[nH]1)C(=O)N[C@@H](CO)C(=O)N[C@@H](C)C(=O)N[C@@H](CC(=O)O)C(=O)N[C@@H](CCCCN)C(=O)N[C@@H](Cc1ccccc1)C(N)=O)[C@@H](C)O [KWKSFIKKLTSKFLHSADKF]

- MIC [1]: > 64 µM
- MIC [7]: 8 µM (≈ 18.3 µg/mL)
- MIC [2]: 4 µM (≈ 9.15 µg/mL)
- MIC [3]: 16 µM (≈ 36.6 µg/mL)
- MIC [4]: 32 µM (≈ 73.2 µg/mL)
SMILES: CC[C@H](C)[C@H](NC(=O)[C@@H](NC(=O)[C@H](CO)NC(=O)[C@@H]1CCCN1C(=O)[C@@H](NC(=O)[C@@H](NC(=O)[C@H](CO)NC(=O)[C@H](CO)NC(=O)[C@H](CC(C)C)NC(=O)[C@H](C)NC(=O)[C@H](CO)NC(=O)[C@H](CC(C)C)NC(=O)[C@H](C)NC(=O)[C@H](C)NC(=O)CNC(=O)[C@H](CC(C)C)NC(=O)[C@@H](N)CC(C)C)C(C)C)[C@@H](C)CC)C(C)C)C(=O)N[C@@H](CO)C(=O)N[C@@H](Cc1c[nH]c2ccccc12)C(=O)N[C@@H](Cc1ccccc1)C(=O)N[C@@H](CCC(N)=O)C(=O)N[C@@H](CCCCN)C(N)=O [LLGAALSALSSVIPSVISWFQK]

- MIC [3]: 5 µM and 12.5 µM
- MIC [5]: 4 µM and 8 µM
SMILES: CC[C@H](C)[C@H](NC(=O)[C@@H]1CCCN1C(=O)[C@H](CC(C)C)NC(=O)[C@@H](N)CC(C)C)C(=O)N[C@H](C(=O)NCC(=O)N[C@@H](CC(N)=O)C(=O)N[C@@H](CC(C)C)C(=O)N[C@@H](CC(C)C)C(=O)N[C@@H](CCCCN)C(=O)N[C@@H](CO)C(=O)N[C@@H](CC(C)C)C(=O)N[C@@H](CC(C)C)C(=O)NCC(=O)N[C@@H](Cc1c[nH]c2ccccc12)C(=O)N[C@@H](CCCCN)C(=O)N[C@@H](CCCN=C(N)N)C(=O)N[C@@H](CCCCN)C(=O)N[C@@H](CCCN=C(N)N)C(=O)N[C@@H](Cc1ccccc1)C(=O)NCC(N)=O)C(C)C [LLPIVGNLLKSLLGWKRKRFG]

- MIC [7]: > 58.2 µM
- MIC [9]: 20.6 µM (≈ 22.6 µg/mL)
SMILES: CC[C@H](C)[C@H](NC(=O)[C@H](CS)NC(=O)[C@H](CCCN=C(N)N)NC(=O)[C@@H](N)CC(C)C)C(=O)N[C@@H](C)C(=O)N[C@@H](CC(C)C)C(=O)N[C@@H](CCCN=C(N)N)C(=O)N[C@@H](CCCCN)C(=O)N[C@@H](CCCCN)C(N)=O [LRCIALRKK]

- MIC [1]: 10.9 µM (≈ 4.21 µg/mL)
- MIC [2]: 21.7 µM (≈ 8.41 µg/mL)
SMILES: CC(=O)N[C@@H](CCC(N)=O)C(=O)N[C@@H](C)C(=O)N[C@@H](CCCCN)C(=O)O [QAK]

- MIC [1]: 87.4 µM (≈ 200 µg/mL)
- MIC [11]: ≥ 32.8 µM
SMILES: CC[C@H](C)[C@H](NC(=O)[C@@H](NC(=O)[C@@H](NC(=O)[C@@H]1CCCN1C(=O)[C@H](Cc1c[nH]c2ccccc12)NC(=O)[C@H](Cc1ccccc1)NC(=O)[C@H](CCCN=C(N)N)NC(=O)[C@H](CCCCN)NC(=O)[C@@H](NC(=O)[C@@H](N)CCCN=C(N)N)[C@@H](C)CC)C(C)C)C(C)C)C(=O)N[C@@H](CCCN=C(N)N)C(=O)N[C@H](C(=O)N[C@H](C(=O)N[C@H](C(=O)N[C@@H](C)C(=O)NCC(=O)N[C@@H](Cc1ccc(O)cc1)C(=O)N[C@@H](CC(N)=O)C(=O)N[C@@H](CC(C)C)C(=O)O)C(C)C)C(C)C)[C@@H](C)O [RIKRFWPVVIRTVVAGYNL]

- MIC [1]: 91.7 µM (≈ 125 µg/mL)
- MIC [2]: 22.9 µM (≈ 31.3 µg/mL)
SMILES: CC(C)[C@H](NC(=O)[C@H](Cc1c[nH]c2ccccc12)NC(=O)[C@H](CCCCN)NC(=O)[C@@H](N)CCCN=C(N)N)C(=O)N[C@@H](Cc1ccc(O)cc1)C(=O)N[C@@H](Cc1c[nH]c2ccccc12)C(=O)N[C@@H](CCCN=C(N)N)C(=O)N[C@@H](CC(N)=O)C(=O)N[C@@H](CCCN=C(N)N)C(=O)O [RKWVYWRNR]

- MIC [12]: ≥ 150 µM
SMILES: CC[C@H](C)[C@H](NC(=O)[C@H](CO)NC(=O)[C@@H](NC(=O)[C@H](CCCCN)NC(=O)[C@H](Cc1ccccc1)NC(=O)[C@@H]1CCCN1C(=O)[C@@H](N)[C@@H](C)O)[C@@H](C)CC)C(=O)N[C@@H](Cc1cnc[nH]1)C(=O)N[C@@H](CC(C)C)C(=O)NCC(=O)NCC(=O)N[C@@H](Cc1ccc(O)cc1)C(N)=O [TPFKISIHLGGY]

- MIC [1]: 22.9 µM (≈ 31 µg/mL)
- MIC [2]: 22.9 µM (≈ 31 µg/mL)
- MIC [3]: 185 µM and > 92.3 µM
SMILES: CC(C)C[C@H](NC(=O)[C@H](Cc1ccc(O)cc1)NC(=O)[C@H](CCCCN)NC(=O)[C@H](Cc1c[nH]c2ccccc12)NC(=O)[C@H](Cc1ccccc1)NC(=O)[C@H](CCCCN)NC(=O)[C@H](CCCN=C(N)N)NC(=O)[C@@H](N)Cc1c[nH]c2ccccc12)C(=O)N[C@@H](CCCCN)C(N)=O [WRKFWKYLK]
